# Key:
# [1] = target: T1, sec7-domains of cytohesin-2 (ARNO) (Homo sapiens, UniProt Q99418); assay: guanine nucleotide exchange assay (GDP/GTP exchange on [Δ17]ARF1, tryptophan fluorescence); type: biochemical; conditions: for IC50: 250 nM [Δ17]ARF1, 10 nM ARNO-Sec7, 50 µM GTP, PBS pH 7.4, 37°C, read-out: IC50 value measured for the isolated Sec-7 domain of cytohesin-2; for inhibition of the sec7-domain of the isolated cytohesin-2 (relative exchange rate): 5µM amide compared with 5µM control SecinH3 (K), whose rate is set to 1, Fig. 1; for dual activity in cell adhesion and nucleotide exchange assays (summary in words): across nucleotide exchange and cell adhesion assays
# T1 construct: ARNO-Sec7 (amino acids 50-255 of ARNO) were expressed in Escherichia coli; inferred from pET15 vector and Ni-NTA purification; made in house; host or cells: Escherichia coli
# T1 sequence (Q99418 50-255): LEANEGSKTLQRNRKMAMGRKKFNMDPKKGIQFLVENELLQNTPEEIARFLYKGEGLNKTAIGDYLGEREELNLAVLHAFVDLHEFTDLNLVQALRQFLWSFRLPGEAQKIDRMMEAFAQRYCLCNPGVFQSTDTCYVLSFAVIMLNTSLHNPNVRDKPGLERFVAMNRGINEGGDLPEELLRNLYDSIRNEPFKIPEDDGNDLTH
# Procedure: The inhibition of the exchange activity of the sec7-domains of cytohesin-2 (ARNO) of the amides according to formulas (5) to (30) was determined by a guanine nucleotide exchange assay.
# For this purpose, the sec7-domains of cytohesin-2 (ARNO-Sec7) and [Δ17]ARF1, a mutant of the ADP-ribosylation factor (ARF) protein, were subcloned into pET15 vectors (Novagen) as described in Hafner, M. et al. Nature 444, 941-944 (2006). N-terminal truncated [Δ17]ARF1 (amino acids 18-181), lacking the first 17 amino acids and ARNO-Sec7 (amino acids 50-255 of ARNO) were expressed in Escherichia coli and purified by Ni-NTA chromatography (Ni-NTA agarose, Qiagen).
# The exchange from […] (GDP) to guanidine-triphosphate (GTP) induces a conformation change of the ribosylation factor, as a result of which the fluorescence of a tryptophan radical of the protein is increased. GDP/GTP exchange was measured on [Δ17][…] by tryptophan fluorescence because a large increase in intrinsic fluorescence of ARF occurs upon exchange of GDP for GTP. All measurements were performed in PBS (137 mM NaCl, 2.7 mM KCl, 10.2 mM Na2HPO4, 1.8 mM KH2PO4) pH 7.4, 3 mM MgCl2 at 37°C.
# [Δ17]ARF1 (1 µM) in PBS without MgCl2 was preincubated with 80 µM GDP in the presence of 2 mM ethylenediaminetetraacetic acid (EDTA) for 15 minutes. The bound GDP was stabilized by addition of MgCl2 at a final concentration of 3 mM and incubation for 5 minutes. For each exchange reaction 250 nM [Δ17]ARF1 was mixed with 10 nM ARNO-Sec7 (total volume 200 µl) in the absence or presence of inhibitoring amides according to formulas (5) to (30). The reaction was started by injection of 50 µM GTP.
# The tryptophan fluorescence was measured at excitation and emission wavelength of 280 nm and 340 nm respectively. All fluorescent measurements were performed with a Varioskan microplate reader (Thermo Scientific), in 96-well plates. For analysis all data were fitted by linear regression.
# The pan-active cytohesin inhibitor "SecinH3", a 1-, 2-, 4-substituted triazole according to formula (9) as disclosed in DE 10 2004 055 998 served as the control (K). The relative exchange rate of the control SecinH3 (K) was set to be 1.
# The relative exchange rate was determined by comparing the initial linear rise of the fluorescence signal (exchange rate) in the presence of 5µM of the amides according to formulas (5) to (30) with the exchange rate in the presence of 5µM control SecinH3 (K), whereas the latter was set to be 1.
# Further, the IC50 value inhibition of the sec7-domain of the isolated cytohesin-2 was determined. The IC50 value was be determined by plotting the initial linear rise of the fluorescence signal against the added concentrations of the amide. The IC50 value corresponds to the concentration of the amide at which the activity of the protein is reduced to half.
# [2] = test system: Drosophila insulin signaling (d4E-BP mRNA levels in Drosophila S2 cells); assay: Drosophila insulin signaling assay, d4E-BP mRNA by quantitative RT-PCR; type: cell-based; conditions: 5 µg/ml insulin; for d4E-BP transcript levels: 10 µM amide for 18 hours, control SecinH3 (K) set to 1, Fig. 2
# Procedure: In order to evaluate potential interference of the amides according to formulas (5) to (30) with Drosophila insulin signaling, S2 (Schneider 2 insect cell line, Invitrogen) cells were grown under starvation conditions and subsequently treated with insulin. This triggers a strong activation of the insulin signaling cascade resulting in the nuclear exclusion of the forkhead-box transcription factor dFOXO, which in turn down-regulates the expression of the transcriptional repressor d4E-BP (eIF4E-binding protein). […] This was measured by quantitative RT-PCR and compared to the effect of the control SecinH3 (K) in the same assay.
# 0.5 x 10^6 S2 cells were grown in 24-well dishes in medium (Schneiders Drosophila Medium, PAN Biotech) without FCS (heat-inactivated fetal calf serum) representing starvation condition. Six hours after seeding cells were treated for 18 hours with 10 µM of the respective amide according to formulas (5) to (30) or 10 µM SecinH3 (K) as reference. 22 hours after seeding cells were treated with 5 µg/ml insulin (Sigma). Controls were performed without amide and/or without insulin treatment. The amides were dissolved in dimethyl sulfoxide (DMSO). Final DMSO concentration in the cell culture medium was 0.5 %.
# NucleoSpin 8 RNA Kit (Macherey-Nagel) was used for RNA preparation according to manufacturer's instructions. Genomic DNA digestion and first strand cDNA synthesis was carried out with 250 ng total RNA using QuantiTect Reverse Transkription Kit (Qiagen). Quantitative PCR was performed with the iQ5 Real-Time PCR detection system (Bio-Rad) and iQ SYBR Green Super Mix (Bio-Rad). Three reactions were done in parallel for each template. Real Time PCR was analysed using Bio-Rad iQ5 Optical System Software and Microsoft Excel.
# The d4E-BP mRNA level after treatment of cells with the amides according to formulas (5) to (30) compared to the control SecinH3 is shown in Fig. 2. The d4E-BP mRNA level after treatment of cells with the control SecinH3 (K) was set to be 1.
# [3] = test system: adhesion of the T cell line Jurkat E6 to an immobilized ICAM-1-Fc-fusion protein; assay: cell adhesion assay, Jurkat E6 cells to immobilized ICAM-1-Fc-fusion protein; type: cell-based, human; conditions: 25 µM amide, OKT3 or PMA stimulation; 100% adhesion = 25 µM control SecinH3 (K); Fig. 3
# Procedure: The ability of the amides according to formulas (5) to (30) to inhibit adhesion of the T cell line Jurkat E6 to an immobilized ICAM-1(Inter-Cellular Adhesion Molecule 1)-Fc-fusion protein was tested. On the T cell side, this interaction is exclusively mediated by the β-2 integrin LFA-1 that was enabled to bind to immobilized ICAM-1 through stimulation of Jurkat cells with an anti-TCR (T cell receptor) antibody or with the phorbol ester PMA (Phorbol 12-myristate 13-acetate). Cell adhesion to ICAM-Fc was carried out on 96-well dishes and was read out by fluorescence detection of total input versus bound cells which had been labeled with the DNA dye H33342.
# Jurkat E6.1 cells were incubated in HBSS (Hank's BSS, PAA), 0.5% DMSO and, where indicated, 25 µM of the respective amide for one hour at 37°C, 5% CO2. After 30 minutes the cells were labeled with the fluorochrome bisbenzimide trihydrochloride H33342 (Sigma-Aldrich) at […] for 30 minutes at 37°C. 2 x 10^5 cells/ well were subsequently dispensed into a 96-well plate at 100µl/well. Prior to use plates were coated with 12µg/ml goat anti-human IgG for 90 minutes at 21°C, blocked with 1% BSA (Bovine serum albumin) in PBS overnight and incubated for 60 minutes with culture supernatants from CV-1 cells expressing an ICAM-1-Fc fusion protein.
# Cells were either stimulated with 5 µg/ml purified anti CD3 antibody (OKT3, hybridome of ATCC, mAb OKT3 purified on protein A, according to standard methods from Current Protocols in Immunology, 5th Ed., Coligan et al., Edts, Wiley 2004) or with 50 ng/ml PMA, respectively. Cells were allowed to adhere to the ICAM-1-Fc coated dishes for 15 minutes and unbound cells were washed off with Hank's BSS (PAA). Adherent cells were read out using a fluorescence plate reader (Synergy-HT1, Biotek) at 485 nm in triplicates.
# "100% adhesion" corresponds to the mean of OKT3 and PMA stimulated samples treated with 25 µM control control Secin H3 (K) as reference.
dual activity in cell adhesion and nucleotide exchange assays (summary in words) [1],SMILES,IC50 [1] [µM],dose-response behaviour of inhibition in nucleotide exchange assay [1],potency in nucleotide exchange assay (summary in words) [1],inhibition of the sec7-domain of the isolated cytohesin-2 (relative exchange rate) [1],d4E-BP transcript levels [2],increase in dFOXO-dependent d4E-BP transcript levels compared to the reference (K) ([2]; 10 µM amide) [fold],inhibition of the adhesion of the Jurkat E6.1 cells to ICAM-1 [3]
–,"COc1nc(-c2ccc3c(c2)OCO3)n(-c2ccc(NC(=O)CSc3ccccc3)cc2)n1 [SecinH3, reference compound]",11.4,–,–,–,–,–,–
–,CC(C)(C)c1ccc(C(=O)Nc2ccc(NC(=O)/C=C/c3ccco3)cc2)cc1 [formula (5)],3.1,displayed a dose-response behaviour,potent inhibitors,better than that of the control SecinH3 (K),increased,~20,better than that of the control (K)
–,CC(C)(C)c1ccc(C(=O)Nc2ccc(NC(=S)NC(=O)c3cccs3)cc2)cc1 [formula (6)],8,–,potent inhibitors,better than that of the control SecinH3 (K),increased,–,better than that of the control (K)
–,COc1nc(-c2ccc(C)cc2)n(-c2ccc(NC(=O)/C=C/c3ccccc3)cc2)n1 [formula (7)],–,–,–,better than that of the control SecinH3 (K),–,–,–
dual activity,COc1ccc(-n2c(SCCC(=O)NC(N)=O)nnc2-c2ccc(C(C)(C)C)cc2)cc1Cl [formula (11)],–,–,–,better than that of the control SecinH3 (K),–,–,better than that of the control (K)
dual activity,CC(C)(C)c1ccc(C(=O)Nc2ccc(NC(=O)c3ccc4c(c3)OCO4)cc2)cc1 [formula (29)],–,–,–,–,–,–,better than that of the control (K)

SMILES,dual activity in cell adhesion and nucleotide exchange assays (summary in words) [1],IC50 [1] [µM],dose-response behaviour of inhibition in nucleotide exchange assay [1],potency in nucleotide exchange assay (summary in words) [1],inhibition of the sec7-domain of the isolated cytohesin-2 (relative exchange rate) [1],d4E-BP transcript levels [2],increase in dFOXO-dependent d4E-BP transcript levels compared to the reference (K) ([2]; 10 µM amide) [fold],inhibition of the adhesion of the Jurkat E6.1 cells to ICAM-1 [3]
C=CCn1c(SCC(=O)Nc2nsc(-c3ccccc3)n2)nc2scc(-c3ccccc3)c2c1=O [formula (20)],dual activity,2.1,displayed a dose-response behaviour,potent inhibitors,–,increased,–,–

# Source: EP2286808A1, “Cytohesin inhibitors” (Rheinische Friedrich-Wilhelms Universität, priority 2009, dated 2011)
